12 compounds from paper PMC8465095, “Secondary Metabolites with α-Glucosidase Inhibitory Activity from Mangrove Endophytic Fungus Talaromyces sp. CY-3” (Marine Drugs, 2021) can be followed below.

The experiment deals with α-glucosidase (Saccharomyces cerevisiae, UniProt P53341). The experiment in a line: biochemical.
[1] abbreviates: read-out: α-glucosidase inhibitory activity IC50.
The mark [2] stands for this setting: positive control 1-deoxynojirimycin, DMSO blank, read-out: α-glucosidase inhibitory activity IC50.

Where two headings read alike, the source gives them in different places.

α-glucosidase, sequence (P53341 whole entry): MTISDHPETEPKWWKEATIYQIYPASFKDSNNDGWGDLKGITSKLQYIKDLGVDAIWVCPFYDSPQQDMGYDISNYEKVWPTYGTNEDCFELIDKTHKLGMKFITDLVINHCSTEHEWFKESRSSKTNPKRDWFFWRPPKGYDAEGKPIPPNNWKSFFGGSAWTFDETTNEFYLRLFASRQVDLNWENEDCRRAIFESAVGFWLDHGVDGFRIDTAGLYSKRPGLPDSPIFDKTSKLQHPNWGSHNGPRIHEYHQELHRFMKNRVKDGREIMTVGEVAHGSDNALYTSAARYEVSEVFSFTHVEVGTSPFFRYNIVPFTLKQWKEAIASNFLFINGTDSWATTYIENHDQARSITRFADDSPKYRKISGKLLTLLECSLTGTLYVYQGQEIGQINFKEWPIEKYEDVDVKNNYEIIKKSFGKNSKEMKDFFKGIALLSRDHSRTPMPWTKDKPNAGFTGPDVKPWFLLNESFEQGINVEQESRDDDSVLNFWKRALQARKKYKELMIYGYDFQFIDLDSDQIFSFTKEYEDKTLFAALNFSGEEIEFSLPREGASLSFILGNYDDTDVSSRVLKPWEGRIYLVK

The compound `CCC(C)CC(C)C=C(C)C1OC(c2c(O)c(-c3ccccc3)cn(C)c2=O)CCC1C` (stereo not drawn) [Compound 1, Sambutoxin A] registered an IC50 of 12.6 ± 0.9 µM.

The compound `CCC(C)CC(C)C=C(C)C1OC(c2c(O)c(-c3ccc(O)cc3)cn(C)c2=O)CC=C1C` (stereo not drawn) [Compound 2, Sambutoxin B] came in with a concentration for half-maximal inhibition (IC50) of 37.4 ± 1.4 µM.

With `CC[C@H](C)C[C@@H](C)/C=C(\C)[C@@H]1O[C@H](c2c(O)c(-c3ccc(O)cc3)cn(C)c2=O)CC[C@H]1C` [Compound 3, (–)-sambutoxin], it took 16.9 ± 0.6 µM to reach half-maximal inhibition (IC50).

Regarding `C/C=C/[C@@H]1[C@H]2C[C@@H](C)CC[C@@H]2C(C)=C[C@H]1C(=O)c1c(O)c(-c2ccc(O)cc2)c[nH]c1=O` [Compound 4, ilicicolin H], the concentration for half-maximal inhibition (IC50) under setting [1] amounted to 16.5 ± 0.7 µM.

Regarding `C/C=C/[C@@H]1Oc2c(-c3ccccc3)c[nH]c(=O)c2[C@@H]2[C@H]1CCC[C@H]2C` [Compound 5, deoxyleporin B], the half-inhibitory concentration (IC50) under setting [1] worked out at 57.3 ± 1.3 µM.

Regarding `C/C=C/[C@@H]1Oc2c(-c3ccccc3)cn(O)c(=O)c2[C@@H]2[C@H]1CCC[C@H]2C` [Compound 6, leporine B], the IC50 under setting [1] was above 100 µM.

Regarding `CCC(C)C(=O)OC1(C)C(=O)C(C)=C(OC)C1O` (stereo not drawn) [Compound 7, Talaketides A], the half-maximal inhibitory concentration (IC50) under setting [1] was above 100 µM.

`COC1=CC(=O)C(C)(O)C1(O)C(C)=O` (stereo not drawn) [Compound 8, Talaketides B]: under setting [1], the IC50 was above 100 µM.

As to `CCC(C)C(=O)OC1(C)C(=O)C(C)=C(OC)CC1OC` (stereo not drawn) [Compound 9, Talaketides C], the IC50 under setting [1] was above 100 µM.

Regarding `COC1=CC(=O)C(C)(O)C(O)C1C` (stereo not drawn) [Compound 10, Talaketides D], under setting [1], the IC50 was above 100 µM.

In the case of `COC1=CC(=O)C(C)(O)C(O)C1C` (stereo not drawn) [Compound 11, Talaketides E], the 50% inhibitory concentration (IC50) under setting [2] was above 100 µM.

Turning to `COC1=CC(=O)C(C)(O)C(O)C1C` (stereo not drawn) [Compound 12, Talaketides F], under setting [2], the IC50 was above 100 µM.

By IC50 is commonly meant the midpoint of a concentration-inhibition curve.
